Results reported in patent publication US20240415814A1, “PHARMACEUTICAL COMPOSITION COMPRISING 1-(3-CYANO-1-ISOPROPYL-INDOL-5-YL)PYRAZOLE-4-CARBOXYLIC ACID” (LG CHEM, LTD., priority 2021, published 2024).
Read-outs that look alike come from different tables or passages of the source.

Tests used:
serum uric acid = test: Phase 2 clinical trial (NCT03934099): serum uric acid concentration in gout patients; format: in vivo, human; details: for average maximum degree of reduction in serum uric acid: FIG. 3; for patients with serum uric acid concentration <6 mg/dL: gout patients, with colchicine 0.6 mg; for average serum uric acid concentration: within 2 weeks after starting administration
Method: A phase 2 clinical trial was conducted to analyze the dosage, TEAEs, and the like when the compound of Formula 1 (1-(3-cyano-1-isopropyl-indol-5-yl)pyrazol-4-carboxylic acid; compound of Example 1) is administered to a gout patient group.
• 1. Written informed consent (signed and dated) provided voluntarily prior to the start of the study. • 2. Male or female aged from 18 to 75 • 3. History or experience of hyperuricemia and gout in accordance with the criteria of the American College of Rheumatology. • 4. Self-reported history of 2 or more gout flare within 12 months prior to screening visit (Visit 1). • 5. Serum uric acid (sUA) levels at Visit 1 of 6.0 mg/dL or more in subjects who were receiving urate lower therapy (ULT) with allopurinol, febuxostat, probenecid, or lesinurad; and sUA levels at Visit 1 of 8.0 mg/dL or more and 12.0 mg/dL or less in subjects who had no history of receiving the ULT or were not receiving the ULT at visit 1. • 6. sUA levels of 8.0 mg/dL or more and 12.0 mg/dL or less at Visit 3. • 7. Body mass index of 42 kg/m^2 or less at screening visit (Visit 1). • 8. Estimated glomerular filtration rate (eGFR) of 60 mL/min/1.73 m^2 or more at screening visit (Visit 1). • 9. Subjects of childbearing potential with a negative pregnancy test result at screening visit (Visit 1). Subjects (female subjects of childbearing potential and male subjects with partners of childbearing potential) consented to use adequate methods of contraception to avoid pregnancy during the study period. • 10. Able to understand the study procedure and relevant risk, and willing to comply with the visit/protocol schedule.
• 1. Presence of secondary hyperuricemia caused by myeloproliferative disorder, organ transplantation, or the like. • 2. Experience of any active acute gout flare within 3 weeks prior to screening visit (Visit 1). • 3. Aspartate aminotransferase or alanine aminotransferase level exceeds 2 times upper limit of normal (ULN) at screening visit (Visit 1). • 4. Creatine kinase level exceeds 2.5 times ULN at screening visit (Visit 1). • 5. Presence of previous hypersensitivity to colchicine. • 6. Patients who have ever prescribed pegloticase within 3 months prior to screening visit (Visit 1). • 7. If a stable dose of drugs (losartan, fibrate, thiazide diuretics, loop diuretics, and acetylsalicylic acid) known to affect sUA levels has not been administered during the past 6 weeks prior to screening visit (Visit 1), acetylsalicylic acid is not allowed to use 325 mg/day or more. • 8. Patients who have ever received systemic corticosteroids for 10 or more consecutive days within 1 month prior to screening visit (Visit 1). • 9. Presence of need or potential availability of systemic immunosuppressive drugs or immunomodulatory therapies (e.g., azathioprine, 6-mercaptopurine, and cyclosporine) • 10. Patients who have received high or moderate doses of cytochrome P450 3A4 inhibitors or P-glycoprotein inhibitors within 14 days prior to screening visit (Visit 1). • 11. History of xanthinuria. • 12. History of rheumatoid arthritis. • 13. Presence of active peptic ulcer disease requiring treatment. • 14. Presence of unstable angina, New York Heart Association class III or IV heart failure, myocardial infarction, stroke, deep vein thrombosis, percutaneous coronary intervention (with or without stent), or coronary artery bypass graft within the past 12 months prior to screening visit (Visit 1); current administration of anticoagulants; or the presence of clinically significant electrocardiogram abnormalities in the investigator's opinion at screening visit (Visit 1). • 15. Presence of uncontrolled hypertension (systolic blood pressure>160 mmHg or diastolic blood pressure>95 mmHg) at screening visit (Visit 1). • 16. History of myositis/myopathy, rhabdomyolysis, Stevens-Johnson syndrome, or toxic epidermal necrolysis. • 17. […]

[1] = Pharmacokinetics according to renal function of patients; format: in vivo, human; details: for AUC(0-t) / AUC / Cmax: both sexes, human, plasma, oral, 200 mg, 200 mg once daily, Day 7, plasma; for AUC(0-t): read-out: AUC0-t (AUC0-48 h), geometric LS mean; for AUC: read-out: AUCtau, geometric LS mean; for Cmax: read-out: Cmax, ss, geometric LS mean
Method: PK and PD of the compound of Example 1 were assessed under patient groups with various degrees of renal function. […] A total of 37 patients were classified into 4 groups as follows based on renal function according to eGFR which was calculated by MDRD formula: • Normal: eGFR≥90 mL/min/1.73 m^2, n=13 • Mild (mild renal function impairment): eGFR 60-less than 90 mL/min/1.73 m^2, n=8 • Moderate (moderate renal function impairment): eGFR 30-less than 60 mL/min/1.73 m^2, n=8 • Severe (severe renal function impairment): eGFR<30 mL/min/1.73 m^2 and not on hemodialysis, n=8
Blood and urine samples were collected before dosing and up to 24 or 48 hours after the final dosing for PK/PD assessment.
For the compound of Example 1, statistical analysis of pharmacokinetic parameters using an ANOVA model for the pharmacokinetic population is shown in Table 2 below. The ANOVA model was fitted to the log-transformed PK parameters, with renal function impairment group fitted as a fixed effect. Point estimates and 90% CIs for differences between the least square means on the log scale were exponentiated to express the results as ratios of geometric means and CIs on the original scale.

[2] = 200 mg/day oral, 12 weeks, listed as 1-(3-cyano-1-isopropyl-indol-5-yl)pyrazol-4-carboxylic acid
[3] = mild renal function impairment (eGFR 60-<90), 50 mg, 12 weeks
[4] = mild renal function impairment (eGFR 60-<90), 100 mg, 12 weeks
[5] = mild renal function impairment (eGFR 60-<90), 200 mg, 12 weeks
[6] = moderate renal function impairment (eGFR 30-<60), at each dose (50, 100, 200 mg), 12 weeks
[7] = normal renal function (eGFR>=90), 50 mg, 12 weeks
[8] = normal renal function (eGFR>=90), 100 mg, 12 weeks
[9] = normal renal function (eGFR>=90), 200 mg, 12 weeks
[10] = normal renal function (control)

What does the source list for `CC(C)n1cc(C#N)c2cc(-n3cc(C(=O)O)cn3)ccc21` [Example 1, 1-(3-cyano-1-isopropyl-indol-5-yl)pyrazol-4-carboxylic acid]?
average maximum degree of reduction in serum uric acid (serum uric acid; 50 mg): 46.7%; patients with serum uric acid concentration <4 mg/dL (serum uric acid; 50 mg/day oral, 12 weeks): 18% (6/34 people); patients with serum uric acid concentration <6 mg/dL (serum uric acid; 50 mg/day oral, 12 weeks): 59%; average serum uric acid concentration (serum uric acid; 50 mg/day): 5.5 mg/dL; average maximum degree of reduction in serum uric acid (serum uric acid; 100 mg): 50.6%; patients with serum uric acid concentration <4 mg/dL (serum uric acid; 100 mg/day oral, 12 weeks): 29% (11/38 people); patients with serum uric acid concentration <6 mg/dL (serum uric acid; 100 mg/day oral, 12 weeks): 63%; average serum uric acid concentration (serum uric acid; 100 mg/day): 4.9 mg/dL; average maximum degree of reduction in serum uric acid (serum uric acid; 200 mg): 66.8%; patients with serum uric acid concentration <4 mg/dL (serum uric acid; 200 mg/day oral, 12 weeks): 54% (20/37 people); patients with serum uric acid concentration <6 mg/dL (serum uric acid; 200 mg/day oral, 12 weeks): 78%; patients with serum uric acid concentration <4 mg/dL (serum uric acid; [2]): 54%; patients with serum uric acid concentration <5 mg/dL (serum uric acid; [2]): 62%; average serum uric acid concentration (serum uric acid; 200 mg/day): 3.8 mg/dL; serum uric acid concentration kept within the normal range during the dosing period (serum uric acid; doses of 50 mg, 100 mg and 200 mg, from week 2, FIG. 2): < 6.0 mg/dL; patients adjusted to serum uric acid <5.0 mg/dL (serum uric acid; [3]): 33%; patients adjusted to serum uric acid <6.0 mg/dL (serum uric acid; [3]): 53%; patients adjusted to serum uric acid <5.0 mg/dL (serum uric acid; [4]): 44%; patients adjusted to serum uric acid <6.0 mg/dL (serum uric acid; [4]): 67%; patients adjusted to serum uric acid <5.0 mg/dL (serum uric acid; [5]): 55%; patients adjusted to serum uric acid <6.0 mg/dL (serum uric acid; [5]): 77%; patients adjusted to serum uric acid <5.0 mg/dL (serum uric acid; [6]): ≥ 50%; patients adjusted to serum uric acid <6.0 mg/dL (serum uric acid; [6]): ≥ 50%; patients adjusted to serum uric acid <5.0 mg/dL (serum uric acid; [7]): 53%; patients adjusted to serum uric acid <6.0 mg/dL (serum uric acid; [7]): 59%; patients adjusted to serum uric acid <5.0 mg/dL (serum uric acid; [8]): 43%; patients adjusted to serum uric acid <6.0 mg/dL (serum uric acid; [8]): 57%; patients adjusted to serum uric acid <5.0 mg/dL (serum uric acid; [9]): 71%; patients adjusted to serum uric acid <6.0 mg/dL (serum uric acid; [9]): 79%; AUC0-t, ratio of geometric LS means ([1]; Mild/Normal): 1.23; AUCtau, ratio of geometric LS means ([1]; Mild/Normal): 1.23; Cmax, ss, ratio of geometric LS means ([1]; Mild/Normal): 1.32; AUC0-t, ratio of geometric LS means ([1]; Moderate/Normal): 1.19; AUCtau, ratio of geometric LS means ([1]; Moderate/Normal): 1.17; Cmax, ss, ratio of geometric LS means ([1]; Moderate/Normal): 1.15; AUC0-t, ratio of geometric LS means ([1]; Severe/Normal): 1.16; AUCtau, ratio of geometric LS means ([1]; Severe/Normal): 1.26; Cmax, ss, ratio of geometric LS means ([1]; Severe/Normal): 0.885; AUC(0-t) ([1]; mild impairment): 36500 ng·h/mL; AUC ([1]; mild impairment): 38100 ng·h/mL; Cmax ([1]; mild impairment): 7460 ng/mL; AUC(0-t) ([1]; moderate impairment): 35200 ng·h/mL; AUC ([1]; moderate impairment): 36100 ng·h/mL; Cmax ([1]; moderate impairment): 6490 ng/mL; AUC(0-t) [1, 10]: 29700 ng·h/mL; AUC [1, 10]: 30900 ng·h/mL; Cmax [1, 10]: 5640 ng/mL; AUC(0-t) ([1]; severe impairment): 34300 ng·h/mL; AUC ([1]; severe impairment): 38900 ng·h/mL; Cmax ([1]; severe impairment): 4990 ng/mL
